Assay results: patent US20240199623A1 (ILDONG PHARMACEUTICAL CO., LTD., priority 2020, published 2024)
Converted amounts (≈) assume the structure as drawn.

Legend:
Human recombinant PDE4C1 = target: T1, Human recombinant PDE4C1 (Homo sapiens, UniProt Q08493); assay: Human phosphodiesterase 4 (PDE4) inhibition, PDE4C1; type: biochemical; settings: read-out: % inhibition range at 10 uM PDE4C1; 10 uM test compound
T1 construct: purchased BPS Bioscience; host or cells: insect Sf9 cells
Procedure: (§1) […] Human recombinant PDE4A1A, PDE4B 1, PDE4C1 and PDE4D2 are respectively expressed in each host cell (insect Sf9 cells, BPS Bioscience). Preincubation of 10 μM test compounds or vehicle was proceeded with 20 ng/ml PDE4A1A or 4 ng/ml PDE4B 1 or 8 ng/ml PDE4C1 or 5 ng/ml PDE4D2 enzyme in Tris-HCl buffer pH 7.2 for 15 minutes at 25° C. 100 nM fluorescein (FAM) labeled cAMP for another 30 minutes incubation period was added in order to initiate the enzymatic reaction and addition of IMAP binding solution was followed for its termination. Specifically, IMAP complexes with phosphate groups on nucleotide monophosphate generated from cyclic nucleotides through PDE activity. The amount of complex formed is determined by reading spectrofluorimetrical signal at 470 nm/525 nm.

[1] = target: T2, Human recombinant PDE4B 1 (Homo sapiens, UniProt Q07343); assay: Human phosphodiesterase 4 (PDE4) inhibition, PDE4B 1; type: biochemical; settings: read-out: % inhibition range at 10 uM PDE4B1; 10 uM test compound
T2 construct: purchased BPS Bioscience; host or cells: insect Sf9 cells
T2 sequence (Q07343 whole entry): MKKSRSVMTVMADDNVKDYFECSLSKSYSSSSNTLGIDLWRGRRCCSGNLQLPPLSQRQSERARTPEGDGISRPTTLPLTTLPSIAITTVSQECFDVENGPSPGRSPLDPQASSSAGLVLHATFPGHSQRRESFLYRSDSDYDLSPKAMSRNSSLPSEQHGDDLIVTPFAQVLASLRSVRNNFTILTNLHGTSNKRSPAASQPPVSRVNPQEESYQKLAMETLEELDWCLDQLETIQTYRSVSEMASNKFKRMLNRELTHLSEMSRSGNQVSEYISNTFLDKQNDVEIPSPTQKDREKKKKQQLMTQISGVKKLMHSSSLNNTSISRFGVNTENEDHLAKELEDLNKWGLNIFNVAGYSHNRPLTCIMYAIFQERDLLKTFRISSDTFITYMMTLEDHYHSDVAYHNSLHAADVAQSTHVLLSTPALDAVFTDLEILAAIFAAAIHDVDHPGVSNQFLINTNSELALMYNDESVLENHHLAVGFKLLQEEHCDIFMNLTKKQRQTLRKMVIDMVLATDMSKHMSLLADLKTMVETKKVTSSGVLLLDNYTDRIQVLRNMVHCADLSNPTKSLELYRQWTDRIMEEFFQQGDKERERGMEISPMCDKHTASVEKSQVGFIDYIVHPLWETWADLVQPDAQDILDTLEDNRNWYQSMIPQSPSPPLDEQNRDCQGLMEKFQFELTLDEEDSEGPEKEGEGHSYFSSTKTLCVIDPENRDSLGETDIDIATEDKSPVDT
Procedure: as §1

[2] = Phosphate-buffered saline (PBS) solubility of compounds; type: physicochemical; settings: aqueous buffer, thermodynamic from solid, PBS pH 7.5, 0.5 mg/mL, vortexed 90 min, filtered, LC-MS/MS, read-out: Solubility Range
Procedure: PBS solutions (pH 7.5) were prepared according to the following compositions and stored at 4° C. Test compounds were dissolved in PBS (pH 7.5) at 0.5 mg/mL and vortexed for 90 min. The PBS solution was sequentially filtered through a 0.45, 1.2, […] syringe filter. Concentration of test compounds were determined using LC-MS/MS with appropriate dilution of the samples.

Human recombinant PDE4D2 = target: T3, Human recombinant PDE4D2 (Homo sapiens, UniProt Q08499); assay: Human phosphodiesterase 4 (PDE4) inhibition, PDE4D2; type: biochemical; settings: read-out: % inhibition range at 10 uM PDE4D2; 10 uM test compound
T3 construct: purchased BPS Bioscience; host or cells: insect Sf9 cells
T3 sequence (Q08499 303-809 limits assumed): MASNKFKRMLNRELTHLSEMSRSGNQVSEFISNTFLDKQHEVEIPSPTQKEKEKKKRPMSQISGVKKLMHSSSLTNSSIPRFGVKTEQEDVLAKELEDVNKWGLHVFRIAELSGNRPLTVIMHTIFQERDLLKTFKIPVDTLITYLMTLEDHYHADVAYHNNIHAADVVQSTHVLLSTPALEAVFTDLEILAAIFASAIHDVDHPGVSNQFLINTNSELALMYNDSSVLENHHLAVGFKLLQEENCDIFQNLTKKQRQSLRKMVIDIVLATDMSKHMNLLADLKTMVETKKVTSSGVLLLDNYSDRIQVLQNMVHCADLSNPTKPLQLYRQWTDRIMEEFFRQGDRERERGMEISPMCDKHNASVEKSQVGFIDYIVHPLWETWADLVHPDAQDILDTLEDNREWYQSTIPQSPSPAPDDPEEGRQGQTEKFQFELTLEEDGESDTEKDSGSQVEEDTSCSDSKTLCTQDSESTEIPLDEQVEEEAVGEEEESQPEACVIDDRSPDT
Procedure: as §1

[3] = target: T4, Human recombinant PDE4A1A (Homo sapiens, UniProt P27815); assay: Human phosphodiesterase 4 (PDE4) inhibition, PDE4A1A; type: biochemical; settings: read-out: % inhibition range at 10 uM PDE4A1A; 10 uM test compound
T4 construct: purchased BPS Bioscience; host or cells: insect Sf9 cells
T4 sequence (P27815 1-647 isoform P27815-4): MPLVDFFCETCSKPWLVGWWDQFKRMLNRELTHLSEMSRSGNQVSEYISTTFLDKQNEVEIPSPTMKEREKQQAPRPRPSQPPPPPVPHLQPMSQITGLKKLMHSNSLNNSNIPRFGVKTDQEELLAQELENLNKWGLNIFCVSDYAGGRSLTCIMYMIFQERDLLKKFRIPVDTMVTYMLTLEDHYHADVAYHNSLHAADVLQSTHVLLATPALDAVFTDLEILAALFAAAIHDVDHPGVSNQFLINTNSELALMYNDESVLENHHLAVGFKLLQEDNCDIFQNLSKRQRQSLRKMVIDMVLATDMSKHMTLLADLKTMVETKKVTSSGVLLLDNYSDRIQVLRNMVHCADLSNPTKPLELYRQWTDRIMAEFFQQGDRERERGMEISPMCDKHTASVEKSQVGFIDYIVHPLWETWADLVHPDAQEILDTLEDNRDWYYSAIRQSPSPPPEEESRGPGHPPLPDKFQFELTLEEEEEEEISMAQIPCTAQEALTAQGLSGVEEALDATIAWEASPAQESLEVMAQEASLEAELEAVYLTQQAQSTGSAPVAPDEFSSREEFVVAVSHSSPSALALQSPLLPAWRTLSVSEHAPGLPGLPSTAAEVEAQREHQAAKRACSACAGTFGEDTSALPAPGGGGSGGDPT
Procedure: as §1

human wild type-CFTR [4] = target: T5, human wild type-CFTR (Homo sapiens, UniProt P13569); assay: Cell-based YFP assay; parameters: expressed in transfected cells; host or cells: CHO-K1 (Chinese hamster ovary); settings: CHO-K1 cells expressing human wild type-CFTR and YFP-H148Q/I152L; forskolin 20 μM = 100% activity; read-out: Cell-based YFP Assay (EC50) Concentration Range
T5 sequence (P13569 whole entry): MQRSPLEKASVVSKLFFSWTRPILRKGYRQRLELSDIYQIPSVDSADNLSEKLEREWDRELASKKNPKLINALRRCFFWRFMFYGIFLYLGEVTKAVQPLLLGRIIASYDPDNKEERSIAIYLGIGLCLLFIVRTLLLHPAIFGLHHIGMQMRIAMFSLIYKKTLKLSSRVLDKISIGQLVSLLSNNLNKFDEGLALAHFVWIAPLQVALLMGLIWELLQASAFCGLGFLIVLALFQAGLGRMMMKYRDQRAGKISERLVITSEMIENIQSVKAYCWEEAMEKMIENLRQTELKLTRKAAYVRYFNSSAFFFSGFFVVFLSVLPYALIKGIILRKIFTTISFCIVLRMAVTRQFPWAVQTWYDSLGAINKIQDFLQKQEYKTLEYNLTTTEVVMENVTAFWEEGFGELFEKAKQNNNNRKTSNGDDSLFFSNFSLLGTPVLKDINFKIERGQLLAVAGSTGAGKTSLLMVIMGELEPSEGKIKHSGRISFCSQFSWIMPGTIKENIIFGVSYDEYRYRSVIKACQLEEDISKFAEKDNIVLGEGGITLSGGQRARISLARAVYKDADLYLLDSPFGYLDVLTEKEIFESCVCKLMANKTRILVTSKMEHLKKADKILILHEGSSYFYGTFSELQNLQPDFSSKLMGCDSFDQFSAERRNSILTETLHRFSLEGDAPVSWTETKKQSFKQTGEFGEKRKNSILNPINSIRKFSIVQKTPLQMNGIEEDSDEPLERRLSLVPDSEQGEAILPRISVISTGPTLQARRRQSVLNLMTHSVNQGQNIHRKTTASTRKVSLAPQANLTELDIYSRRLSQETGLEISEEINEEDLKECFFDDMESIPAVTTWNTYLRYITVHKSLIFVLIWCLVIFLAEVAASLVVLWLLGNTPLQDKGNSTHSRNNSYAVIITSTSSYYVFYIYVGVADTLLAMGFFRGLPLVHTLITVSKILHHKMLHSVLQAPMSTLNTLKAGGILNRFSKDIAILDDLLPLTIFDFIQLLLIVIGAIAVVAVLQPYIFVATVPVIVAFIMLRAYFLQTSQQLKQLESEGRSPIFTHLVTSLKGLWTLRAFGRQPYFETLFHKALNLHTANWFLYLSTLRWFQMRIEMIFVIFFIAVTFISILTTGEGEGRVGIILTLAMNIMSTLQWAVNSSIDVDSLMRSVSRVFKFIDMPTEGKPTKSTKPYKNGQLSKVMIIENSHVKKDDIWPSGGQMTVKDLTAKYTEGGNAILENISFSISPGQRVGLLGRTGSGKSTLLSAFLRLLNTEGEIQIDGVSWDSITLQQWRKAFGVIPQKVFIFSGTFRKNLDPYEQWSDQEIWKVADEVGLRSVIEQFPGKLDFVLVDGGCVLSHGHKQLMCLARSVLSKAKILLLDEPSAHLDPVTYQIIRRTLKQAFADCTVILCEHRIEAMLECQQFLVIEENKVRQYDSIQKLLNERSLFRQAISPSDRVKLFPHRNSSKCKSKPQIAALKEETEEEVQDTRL
Method in brief: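 CHO-K1 cells co-expressing human wild-type CFTR and YFP-H148Q/I152L halide sensor, grown 48 h at 37 °C, then in PBS. YFP quenching by I⁻ influx read at 37 °C after adding 140 mM I⁻ solution, sampled every 0.4 s for 14 s. Triplicates averaged; EC50 fitted.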

human wild type-CFTR [5] = target: T5, human wild type-CFTR; assay: Short-circuit current measurement; type: cell-based; parameters: expressed in transfected cells; settings: FRT cells expressing human wild type-CFTR; Forskolin 20 μM signal used as 100% activity; read-out: Short-circuit current measurement (EC50) Concentration range
Source text: Forskolin (Tocris cat. #1099), CFTRinh-172 (Tocris cat. #3430), amphotericin B (Tocris cat. #6930), dimethyl sulfoxide (Sigma cat. #D4540), EVC4000 Multi-Channel V/I Clamp (World Precision Instruments, Sarasota, FL), PowerLab 4/35 (AD Instruments, Castle Hill, Australia), Labchart Pro 7, GraphPad Prism 5 (GraphPad Software, Inc.). Fisher rat thyroid (FRT) cells expressing human wild type-CFTR were provided by Dr. Alan Verkman (University of California, San Francisco) and grown in DMEM/F12 medium (1:1) supplemented with 10% FBS, 2 mM glutamine, 100 units/ml penicillin and 100 μg/ml streptomycin. Snapwell inserts containing CF TR-expressing FRT cells were mounted in Ussing chambers (Physiologic Instruments, San Diego, CA). […] Forskolin, test compounds, and CFTRinh-172 were added to the apical and basolateral bath solution. Apical membrane current and short-circuit current were measured with an EVC4000 Multi-Channel V/I Clamp (World Precision Instruments, Sarasota, FL) and recorded using PowerLab 4/35 (AD Instruments, Castle Hill, Australia). Data were collected and analyzed with ADInstruments acquisition software Labchart Pro 7 software. The sampling rate was 4 Hz.

C57BL/6 female mice = assay: Scopolamine induced tear volume reduction model; type: in vivo, mouse; settings: scopolamine-injected mice, ophthalmic solution topically on both eyes 3 times a day, phenol red thread; average if evaluated twice
Procedure: Seven-week old C57BL/6 female mice were used.
Scopolamine hydrobromide was purchased from Sigma Aldrich (Cat No. S0929), dissolved in saline, and sterilized prior to use.
Zone-Quick phenol red thread was obtained from Menicon.
The test compounds used in this experiment were dissolved in PBS containing 1% of surfactant.
Scopolamine (0.2 ml of 2.5 mg/mL solution) was injected subcutaneously 3 times a day to induce a decrease in the tear volume in the mouse. At the same time, the ophthalmic solution of test compounds or vehicle were topically administered onto both eyes 3 times a day. Tear volume was measured by phenol red thread before dosing (basal level) and 1 hour after the last administration of scopolamine and ophthalmic solution. The results were obtained by measuring the length of the phenol red thread turning red by tears. The schedule of study is expressed as FIG. 1.
If the test compound was evaluated twice, the average value was used.

T1 sequence (Q08493 whole entry): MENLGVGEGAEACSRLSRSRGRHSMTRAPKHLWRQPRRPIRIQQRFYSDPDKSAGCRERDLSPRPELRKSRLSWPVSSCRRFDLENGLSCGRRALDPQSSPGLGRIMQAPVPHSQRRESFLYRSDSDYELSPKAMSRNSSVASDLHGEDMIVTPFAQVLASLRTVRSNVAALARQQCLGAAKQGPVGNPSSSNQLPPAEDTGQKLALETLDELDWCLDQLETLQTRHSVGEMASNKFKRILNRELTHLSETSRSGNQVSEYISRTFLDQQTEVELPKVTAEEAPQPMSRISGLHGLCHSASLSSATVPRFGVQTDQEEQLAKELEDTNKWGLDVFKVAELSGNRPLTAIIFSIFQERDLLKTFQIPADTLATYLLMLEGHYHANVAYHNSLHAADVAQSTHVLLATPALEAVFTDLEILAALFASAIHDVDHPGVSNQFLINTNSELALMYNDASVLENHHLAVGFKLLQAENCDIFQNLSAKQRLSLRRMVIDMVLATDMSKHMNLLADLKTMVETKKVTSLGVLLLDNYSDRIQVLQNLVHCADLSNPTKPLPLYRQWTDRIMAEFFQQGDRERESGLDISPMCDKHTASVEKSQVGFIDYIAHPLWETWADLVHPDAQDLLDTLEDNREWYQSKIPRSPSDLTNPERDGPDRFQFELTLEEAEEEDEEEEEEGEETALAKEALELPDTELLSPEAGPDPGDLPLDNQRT

`COC(=O)c1ccccc1NC(=O)c1cc2nccc(-c3ccc(OC)c(OC)c3)n2n1` [Compound 7, methyl 2-(7-(3,4-dimethoxyphenyl)pyrazolo [1,5-a]pyrimidine-2-carboxamido)benzoate] gave an inhibition at 10 µM (Human recombinant PDE4C1) of under 50%, an inhibition at 10 µM [1] of under 50% and a solubility at 90 min [2] of under 0.1 µg/mL. For the same compound, the inhibition at 10 µM (Human recombinant PDE4D2) was under 50% and the inhibition at 10 µM [3] was under 50%.

Compound `COc1ccc(-c2ccnc3cc(C(=O)N[C@H]4CC[C@H](C(=O)OC)CC4)nn23)cc1OC` [Compound 10, methyl (1r,4r)-4-(7-(3,4-dimethoxyphenyl)pyrazolo[1,5-a]pyrimidine-2-carboxamido)cyclohexane-1-carboxylate] has an inhibition at 10 µM (Human recombinant PDE4C1) of over 80%, an inhibition at 10 µM [1] of over 80% and a solubility at 90 min [2] of 0.1 to 10 µg/mL (≈ 0.228 to 22.8 µM). For the same compound, the inhibition at 10 µM (Human recombinant PDE4D2) was over 80% and the inhibition at 10 µM [3] was over 80%.

`COc1ccc(-c2ccnc3cc(C(=O)Nc4ccc(C(=O)N5CCOCC5)cc4)nn23)cc1OC` [Compound 41, 7-(3,4-dimethoxyphenyl)-N-(4-(morpholine-4-carbonyl)phenyl)pyrazolo [1,5-a]pyrimidine-2-carboxamide] gave an inhibition at 10 µM (Human recombinant PDE4C1) of over 80%, an inhibition at 10 µM [1] of over 80% and a solubility at 90 min [2] of under 0.1 µg/mL. The inhibition at 10 µM (Human recombinant PDE4D2) was over 80% and the inhibition at 10 µM [3] was over 80%.

Compound `COC(=O)c1ccc(NC(=O)c2cc3nccc(-c4ccc(OC)c(OC)c4)n3n2)cc1OC` [Compound 192, methyl 4-(7-(3,4-dimethoxyphenyl)pyrazolo [1,5-a]pyrimidine-2-carboxamido)-2-methoxybenzoate] has an inhibition at 10 µM (Human recombinant PDE4C1) of over 80%, an inhibition at 10 µM [1] of over 80% and an EC50 (human wild type-CFTR [4]) of under 200 nM. It also gave an inhibition at 10 µM (Human recombinant PDE4D2) of over 80% and an inhibition at 10 µM [3] of over 80%.

With `COc1ccc(-c2ccnc3cc(C(=O)Nc4ccc(N5CCOCC5)cc4)nn23)cc1OC` [Compound 194, 7-(3,4-dimethoxyphenyl)-N-(4-morpholinophenyl)pyrazolo [1,5-a]pyrimidine-2-carboxamide] the inhibition at 10 µM (Human recombinant PDE4C1) was over 80%, the inhibition at 10 µM [1] was over 80% and the EC50 (human wild type-CFTR [4]) was under 200 nM. It also gave an inhibition at 10 µM (Human recombinant PDE4D2) of over 80% and an inhibition at 10 µM [3] of over 80%.

For `COC(=O)c1ccc(NC(=O)c2cc3ncc(-c4ccc(OC)c(OC)c4)cn3n2)cc1` [Compound 239, methyl 4-(6-(3,4-dimethoxyphenyl)pyrazolo[1,5-a]pyrimidine-2-carboxamido)benzoate], the inhibition at 10 µM (Human recombinant PDE4C1) was under 50%, the inhibition at 10 µM [1] was under 50% and the EC50 (human wild type-CFTR [4]) was at least 2000 nM. For the same compound, the inhibition at 10 µM (Human recombinant PDE4D2) was under 50% and the inhibition at 10 µM [3] was under 50%.

`COc1ccc(-c2ccnc3cc(C(=O)Nc4ccc(N5CCN(C(=O)OC(C)(C)C)CC5)cc4)nn23)cc1OC` [Compound 271, tert-butyl 4-(4-(7-(3,4-dimethoxyphenyl)pyrazolo [1,5-a]pyrimidine-2-carboxamido)phenyl) piperazine-1-carboxylate] gave an EC50 (human wild type-CFTR [4]) of under 200 nM, a solubility at 90 min [2] of under 0.1 µg/mL and an EC50 (human wild type-CFTR [5]) of under 200 nM. For the same compound, the “Ratio of tear volume (test compound to vehicle)” value (from here on “Ratio of tear volume”) (C57BL/6 female mice) was 1.17.

`COc1ccc(-c2ccnc3cc(C(=O)Nc4ccc(N5CCC6(CC5)OCCO6)cc4)nn23)cc1OC` [Compound 274, N-(4-(1,4-dioxa-8-azaspiro[4.5]decan-8-yl)phenyl)-7-(3,4-dimethoxyphenyl)pyrazolo [1,5-a]pyrimidine-2-carboxamide] showed an EC50 (human wild type-CFTR [4]) of under 200 nM, a solubility at 90 min [2] of under 0.1 µg/mL and an EC50 (human wild type-CFTR [5]) of under 200 nM. For the same compound, the “Ratio of tear volume” value (C57BL/6 female mice) was 1.07.

Work on `COc1ccc(-c2ccnc3cc(C(=O)Nc4ccc(NC(=O)CNC(=O)OC(C)(C)C)cc4)nn23)cc1OC` [Compound 280, tert-butyl (2-((4-(7-(3,4-dimethoxyphenyl)pyrazolo [1,5-a]pyrimidine-2-carboxamido)phenyl)amino)-2-oxoethyl)carbamate] yielded an EC50 (human wild type-CFTR [4]) of under 200 nM, a solubility at 90 min [2] of under 0.1 µg/mL and an EC50 (human wild type-CFTR [5]) of under 200 nM. The “Ratio of tear volume” value (C57BL/6 female mice) was 1.32.

`CCOc1ccc(C(=O)Nc2cc3nccc(-c4ccc(OC)c(OC)c4)n3n2)cc1` [Compound 287, N-(7-(3,4-dimethoxyphenyl)pyrazolo[1,5-a]pyrimidin-2-yl)-4-ethoxybenzamide] gave an inhibition at 10 µM (Human recombinant PDE4C1) of under 50%, an inhibition at 10 µM [1] of 50 to 80% and an EC50 (human wild type-CFTR [4]) of 200 to 2000 nM. For the same compound, the inhibition at 10 µM (Human recombinant PDE4D2) was 50 to 80% and the inhibition at 10 µM [3] was 50 to 80%.

In the case of `CCOc1ccc(NC(=O)c2cc3nccc(-c4ccc(OC)nc4)n3n2)cc1` [Compound 323, N-(4-ethoxyphenyl)-7-(6-methoxypyridin-3-yl) pyrazolo[1,5-a]pyrimidine-2-carboxamide], the inhibition at 10 µM (Human recombinant PDE4C1) is reported as under 50%, the inhibition at 10 µM [1] is reported as 50 to 80% and the EC50 (human wild type-CFTR [4]) is reported as at least 2000 nM. For the same compound, the inhibition at 10 µM (Human recombinant PDE4D2) was under 50% and the inhibition at 10 µM [3] was under 50%.

In the case of `COc1ccc(-c2ccnc3cc(C(=O)N4CCN(C(=O)c5cccs5)[C@@H](C)C4)nn23)cc1OC` [Compound 352, (S)-(7-(3,4-dimethoxyphenyl)pyrazolo[1,5-a]pyrimidin-2-yl)(3-methyl-4-(thiophene-2-carbonyl)piperazin-1-yl) methanone], the inhibition at 10 µM (Human recombinant PDE4C1) is reported as over 80%, the inhibition at 10 µM [1] is reported as over 80% and the EC50 (human wild type-CFTR [4]) is reported as under 200 nM. It also gave an inhibition at 10 µM (Human recombinant PDE4D2) of over 80% and an inhibition at 10 µM [3] of over 80%.

With `COc1ccc(-c2ccnc3cc(C(=O)N4CCN(S(=O)(=O)c5ccccc5)[C@@H](C)C4)nn23)cc1OC` [Compound 355, (S)-(7-(3,4-dimethoxy-phenyl)pyrazolo[1,5-a]pyrimidin-2-yl)(3-methyl-4-(phenylsulfonyl)piperazin-1-yl)methanone] the inhibition at 10 µM (Human recombinant PDE4C1) was over 80%, the inhibition at 10 µM [1] was over 80% and the EC50 (human wild type-CFTR [4]) was under 200 nM. It also gave an inhibition at 10 µM (Human recombinant PDE4D2) of over 80% and an inhibition at 10 µM [3] of over 80%.

Work on `COc1ccc(-c2ccnc3cc(C(=O)N4CCN(C(=O)c5ccccn5)[C@@H](C)C4)nn23)cc1OC` [Compound 380, (S)-(7-(3,4-dimethoxyphenyl)pyrazolo[1,5-a]pyrimidin-2-yl) (3-methyl-4-picolinoylpiperazin-1-yl)methanone] yielded an inhibition at 10 µM (Human recombinant PDE4C1) of 50 to 80%, an inhibition at 10 µM [1] of over 80% and an EC50 (human wild type-CFTR [4]) of under 200 nM. The inhibition at 10 µM (Human recombinant PDE4D2) was over 80% and the inhibition at 10 µM [3] was over 80%.

`COc1ccc(-c2ccnc3cc(C(=O)N4CC[C@@H](NC(=O)c5ccccc5)C4)nn23)cc1OC` [Compound 384, (R)-N-(1-(7-(3,4-dimethoxyphenyl)pyrazolo[1,5-a]pyrimidine-2-carbonyl)pyrrolidin-3-yl)benzamide] showed an inhibition at 10 µM (Human recombinant PDE4C1) of 50 to 80%, an inhibition at 10 µM [1] of over 80% and an EC50 (human wild type-CFTR [4]) of under 200 nM. It also gave an inhibition at 10 µM (Human recombinant PDE4D2) of over 80% and an inhibition at 10 µM [3] of over 80%.
